How the values were obtained:
[1] = system: CTG-1006 LMS patient-derived xenograft; experiment: Xenograft Tumor Model CTG-1006; format: in vivo, mouse; conditions: comparator day 27, p-value <0.001
Excerpt: (§1) For all “CTG” models (encompassing human RMS, DSRCT, EWS, OS and LMS patient-derived xenograft models), female NCr nude spontaneous mutant mice (5-8 weeks old, Taconic) are implanted unilaterally in the flank region with tumor fragments harvested from donor animals, each implanted from a specific passage lot.
(§2) For all “ST” models (encompassing RMS and LMS), patient-derived xenografts are established from viable human tumor tissue and are serially passaged in animals a limited number of times to maintain tumor heterogeneity. In subcutaneous models, athymic nude mice (Crl:NU(NCr)-Foxn1nu) or CB-17 SCID mice (CRL-CB17/Icr-Prkdcscid/IcrIcoCrl) are injected or implanted unilaterally into the flank with tumor fragments harvested from host animals, each implanted from a specific passage lot. For all studies, measure tumor growth and body weight twice per week beginning on the seventh day after implantation. When tumor size reaches 150-300 mm^3, randomize animals and group into groups of 4-7 animals. Prepare test compound in an appropriate vehicle (e.g. vehicle can be 20% Captisol® in sterile water) and administer subcutaneously for three consecutive days followed by a four day dosing holiday and repeat for a minimum of four weeks. Tumor response is determined by tumor volume measurement performed twice per week during the course of treatment.

[2] = system: Alveoloar Rhabdomyosarcoma xenograft models; experiment: Sarcoma xenograft models by tumor subtype: Alveolar Rhabdomyosarcoma; format: in vivo, mouse; conditions: age of patients 17-24 years
Description: (§3) The efficacy of 5-(5-(2-(3-aminopropoxy)-6-methoxyphenyl)-1H-pyrazol-3-ylamino)pyrazine-2-carbonitrile methanesulfonic acid monohydrate is measurable in vivo in mouse models of neuroblastomas and human pediatric and adult sarcomas. 5-(5-(2-(3-Aminopropoxy)-6-methoxyphenyl)-1H-pyrazol-3-ylamino)pyrazine-2-carbonitrile methanesulfonic acid monohydrate (10 mg/kg) can be administered subcutaneously to nude mice bearing either cell-derived xenografts (CDX) or patient-derived xenografts (PDX) of human rhabdomyosarcoma, desmoplastic small round cell tumor (DSRCT), osteosarcoma, and Ewing's sarcoma using a 3 day on, 4 day off b.i.d. dosing schedule. Tumor volume and body weight can be measured two times per week. Tumor-specific parameters can be evaluated by immumohistochemistry.
Expand human RMS cancer cells SJCRH-30 (St. Jude Children's Research Hospital) in culture, harvest, and inject 5×10^6 cells in 200 μL of HBSS subcutaneously into the right rear flank of female athymic nude mice (20-22 g, Harlan Laboratories). […]
(§4) For all “ST” models (encompassing RMS and LMS), patient-derived xenografts are established from viable human tumor tissue and are serially passaged in animals a limited number of times to maintain tumor heterogeneity. […] Tumor response is determined by tumor volume measurement performed twice per week during the course of treatment.

[3] = system: IMR-32 human NBM cancer cell xenograft; experiment: Xenograft Tumor Model IMR-32; format: in vivo, mouse; conditions: IMR-32, NBM, comparator day 66, p-value <0.001
Description: (§5) The following protocol can be used to measure reductions in tumor volume in response to an active pharmaceutical ingredient. Expand human NBM cancer cells SH-SY5Y (ATCC, #CRL-2226) in culture, harvest, and inject 5×10^6 cells in 200 μL of 1:1 solution of HBSS and Matrigel® subcutaneously into the right rear flank of female CD-1 nu/nu mice (20-24 g, Charles River Laboratories). Expand human NBM cancer cells KELLY (Sigma-#92110411) in culture, harvest, and inject 5×10^6 cells in 200 μL of 1:1 solution of HBSS and Matrigel® subcutaneously into the right rear flank of female CB-17 SCID mice (20-24 g, Charles River Laboratories). Expand human NBM cancer cells IMR-32 (ATCC, #CCL-127) in culture, harvest, and inject 5×10^6 cells in 200 μL of 1:1 solution of HBSS and Matrigel® subcutaneously into the right rear flank of female CB-17 SCID mice (20-24 g, Charles River Laboratories).
as §4

[4] = system: CTG-0785 EWS patient-derived xenograft; experiment: Xenograft Tumor Model CTG-0785; format: in vivo, mouse; conditions: comparator day 18, p-value 0.052
Description: as §3, with “immumohistochemistry. […]” for “immumohistochemistry.”
as §4

[5] = system: CTG-1116 RMS patient-derived xenograft; experiment: Xenograft Tumor Model CTG-1116; format: in vivo, mouse; conditions: comparator day 17, p-value <0.001
Description: as §3, with “immumohistochemistry. […]” for “immumohistochemistry.”
as §4

[6] = system: pediatric sarcoma in vivo mouse models; experiment: Pediatric tumor / pediatric sarcoma in vivo mouse models (panel)
Description: as §3, §1
For all “ST” models (encompassing RMS and LMS), patient-derived xenografts are established from viable human tumor tissue and are serially passaged in animals a limited number of times to maintain tumor heterogeneity. In subcutaneous models, athymic nude mice (Crl:NU(NCr)-Foxn1nu) or CB-17 SCID mice (CRL-CB17/Icr-Prkdcscid/IcrIcoCrl) are injected or implanted unilaterally into the flank with tumor fragments harvested from host animals, each implanted from a specific passage lot. For all studies, measure tumor growth and body weight twice per week beginning on the seventh day after implantation. When tumor size reaches 150-300 mm^3, randomize animals and group into groups of 4-7 animals. […] Tumor response is determined by tumor volume measurement performed twice per week during the course of treatment.

[7] = system: Ewing's Sarcoma xenograft models; experiment: Sarcoma xenograft models by tumor subtype: Ewing's Sarcoma; format: in vivo, mouse; conditions: age of patients 8-17 years
Description: as §3, with “immumohistochemistry. […]” for “immumohistochemistry.”
as §4

[8] = system: DSRCT xenograft models; experiment: Sarcoma xenograft models by tumor subtype: DSRCT; format: in vivo, mouse
Description: as §3, §1, §2

[9] = system: ST162 patient-derived xenograft; experiment: Xenograft Tumor Model ST162; format: in vivo, mouse; conditions: ST162, LMS, comparator day 39, p-value <0.001
Description: as §2

[10] = system: RD, SJCRH30, Saos-2 and RD-ES cell lines; experiment: In Vitro Response of Pediatric Cell Lines (western blot); format: cell-based; conditions: 24 hours at 5 and 50 nM
Description: Cellular lysates can be obtained from embryonal and alveolar rhabdomyosarcoma (RD and SJCRH30, respectively), osteosarcoma (Saos-2), and Ewing's sarcoma (RD-ES) cell lines treated with 5-(5-(2-(3-aminopropoxy)-6-methoxyphenyl)-1H-pyrazol-3-ylamino)pyrazine-2-carbonitrile methanesulfonic acid monohydrate (Example 5) for 24 hours at 5 and 50 nM final concentration.
A western blot can be run using the cellular lysates described above. […] Higher levels of DNA damage can be observed with CHK1 inhibition. Accordingly, the levels of gammaH2AX, a signal for DNA damage, increase upon treatment with 5-(5-(2-(3-aminopropoxy)-6-methoxyphenyl)-1H-pyrazol-3-ylamino)pyrazine-2-carbonitrile methanesulfonic acid monohydrate (Example 5).

[11] = system: KELLY human NBM cancer cell xenograft; experiment: Xenograft Tumor Model KELLY; format: in vivo, mouse; conditions: comparator day 49, p-value <0.001
Description: as §5, §4

[12] = results ranging from stable disease to complete response

For `COc1cccc(OCCCN)c1-c1cc(Nc2cnc(C#N)cn2)n[nH]1` [Example 5, 5-(5-(2-(3-Aminopropoxy)-6-methoxyphenyl)-1H-pyrazol-3-ylamino)pyrazine-2-carbonitrile methanesulfonic acid monohydrate], the “% Regression” value [1] was −24%, the “Result of Treatment: Complete Response (models)” value [2] was 2/2 Complete and the “% Regression” value [3] was −72%. For the same molecule, the “% T/C” value [4] was 57%, the “% T/C” value [5] was 8% and the “pediatric tumor models with strong single agent activity” value ([6]; ranging from stable disease to complete regression, 10 mg/kg SC, 3 day on, 4 day off b.i.d.) was 7/13. For the same molecule, the “pediatric sarcoma in vivo mouse models in which effective as a single agent (models)” value [6, 12] was 7/17, the “pediatric sarcoma in vivo mouse models in which effective as a single agent (percent)” value [6, 12] was roughly 41% and the “Result of Treatment: Stable Disease (models)” value [7] was 1/4 Stable Disease. The “Result of Treatment: Complete Response (models)” value ([8]; DSRCT, age of patients 20 years) was 1/1 Complete, the “tumor response when re-challenged” value ([8]; PDX model of DSRCT, after regrowth) was “tumor regression” and the “time post-treatment at which tumor growth is observed” value ([8]; PDX model of DSRCT, upon cessation of therapy) was 50 days. The “tumor response in a PDX model of DSRCT” value ([8]; following four dosing cycles) was “complete regression”, the “% Regression” value [9] was −93% and the CHK1 protein levels [10] was “do not change”. The “levels of gammaH2AX (signal for DNA damage)” value [10] was “increase”, the “levels of phospho-AKT” value [10] was “do not appear to change” and the “phospho-CHK1 (S345) levels” value [10] was “increase”. For the same molecule, the “levels of phospho-ERK 1/2 (T202/Y204)” value ([10]; RD-ES non-responding) was “increase in three out of four cell lines”, the phospho-hnRNP-C levels ([10]; unaffected in the RD-ES cell line) was “increase” and the “% Regression” value [11] was −88%.

Reference: patent US12558345B2, “CHK1/2 inhibitors for use in the treatment of neuroblastomas and/or soft tissue sarcomas” (Eli Lilly and Company, priority 2015, dated 2026)
